In patent US5208344A, “Naphthalenepropionic acid derivatives as anti-inflammatory/antiallergic agents” (American Home Products Corporation, priority 1991, dated 1993):
Counter-ions that a name gives are not always drawn.

Legend:
5-lipoxygenase = molecular target: T1, 5-lipoxygenase (Homo sapiens, UniProt P09917); assay: inhibition of 5-lipoxygenase in human whole blood (LTB4); assay type: cell-based; settings: human whole blood
T1 construct: Blood is obtained in 50-100 ml quantities from male donors; endogenous in cells; host or cells: human whole blood (leukocytes) from male donors
T1 sequence (P09917 1-674): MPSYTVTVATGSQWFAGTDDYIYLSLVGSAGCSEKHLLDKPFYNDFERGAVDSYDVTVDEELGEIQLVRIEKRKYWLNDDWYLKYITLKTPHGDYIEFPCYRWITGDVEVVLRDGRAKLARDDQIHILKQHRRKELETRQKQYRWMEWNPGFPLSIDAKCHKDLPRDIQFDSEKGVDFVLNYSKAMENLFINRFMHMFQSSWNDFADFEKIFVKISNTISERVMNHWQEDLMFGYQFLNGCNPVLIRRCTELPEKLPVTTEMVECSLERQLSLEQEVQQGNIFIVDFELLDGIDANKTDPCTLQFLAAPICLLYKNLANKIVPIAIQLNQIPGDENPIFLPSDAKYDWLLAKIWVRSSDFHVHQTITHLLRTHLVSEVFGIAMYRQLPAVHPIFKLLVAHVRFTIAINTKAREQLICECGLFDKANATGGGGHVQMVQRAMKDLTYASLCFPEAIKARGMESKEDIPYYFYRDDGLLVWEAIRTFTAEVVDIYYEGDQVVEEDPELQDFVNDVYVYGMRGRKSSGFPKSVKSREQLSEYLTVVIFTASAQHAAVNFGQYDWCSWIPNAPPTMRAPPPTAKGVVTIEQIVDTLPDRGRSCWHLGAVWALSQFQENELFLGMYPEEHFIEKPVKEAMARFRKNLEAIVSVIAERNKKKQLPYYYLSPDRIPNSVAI
Outline: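 Donor whole blood preincubated with compound (final 0.1% DMSO) 10 min at 37 °C, then stimulated with 30 μM calcium ionophore A23187 for 20 min at 37 °C; stopped on ice with 10 mM EGTA. Plasma LTB4 measured by RIA or ELISA, expressed per 10^6 neutrophils; IC50 by regression analysis.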

cyclooxygenase = assay: inhibition of synthesis of cyclooxygenase products TxB2 and PGE2 (rat polymorphonuclear leukocytes); assay type: cell-based; settings: 10 μM; rat PMN; negative = potentiation of PGE2 synthesis
Outline: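 Glycogen-elicited peritoneal PMN from female Wistar rats, 2×10^7 cells/ml in HBSS with Ca^++, Mg^++ and 10 mM L-cysteine, preincubated with compound 10 min at 37° C. Stimulated 10 min with A23187 (10 μM) plus 0.5 μM [14C] arachidonic acid; TxB2 and PGE2 quantified by TLC, autoradiography and scintillation counting.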

SMILES	inhibition at 5 µM (5-lipoxygenase; 5 μM, read-out: % Inhibition of LTB4) [%]	% Inhibition of CO (as PGE2) (cyclooxygenase) [%]	inhibition at 25 µM (5-lipoxygenase; 25 μM) [%]
C[C@H](C(=O)N(C)O)c1ccc2cc(OCc3ccc4ccccc4n3)ccc2c1 [Example 24, (S)-N-Hydroxy-α-N-dimethyl-6-(2-quinolinylmethoxy)-2-naphthaleneacetamide]	44	13	–
C[C@H](C(=O)O)c1ccc2cc(OCc3ccc4ccccc4n3)ccc2c1 [Example 17, S-(α)-α-Methyl-6-(2-quinolinylmethoxy)-2-naphthaleneacetic acid, tromethanime salt]	–	20	19
